Data: US8329726B2, “Inhibitors of VEGF receptor and HGF receptor signaling” (MethylGene Inc., priority 2005, dated 2012)

Columns and labels:
DU145 = DU145 scattering inhibition (HGF dependent scattering); assay type: cell-based; details: Homo sapiens, DU-145; HGF dependent scattering, DU145 cells; read-out: DU145 SCATTERING INHIB IC50
Excerpt: (§1) HGF has well known activity in terms of inducing scattering and migration (wound healing) (Wells et al., Cell Motil Cytoskeleton. 2005 November 62(3):180-94; Miura et al., Urology 2001 December 58(6):1064-9; Nishimura et al., Int J Urol. 1998 May 5(3):276-81; Wang et al., Mol Cancer Ther. 2003 November; 2(11):1085-92; and Christensen et al., Cancer Res. 2003 Nov. 1; 63(21):7345-55).

[1] = target: T1, recombinant human c-Met/HGF receptor (Homo sapiens, UniProt P08581); assay: In vitro receptor tyrosine kinase assay (DELFIA), c-Met/HGF receptor; assay type: biochemical; details: read-out: CMET IC50
T1 construct: His tag (pBlueBacHis2A vector); made in house; host or cells: Hi-5 cells (Trichoplusia ni), baculovirus
T1 sequence (P08581 1078-1337): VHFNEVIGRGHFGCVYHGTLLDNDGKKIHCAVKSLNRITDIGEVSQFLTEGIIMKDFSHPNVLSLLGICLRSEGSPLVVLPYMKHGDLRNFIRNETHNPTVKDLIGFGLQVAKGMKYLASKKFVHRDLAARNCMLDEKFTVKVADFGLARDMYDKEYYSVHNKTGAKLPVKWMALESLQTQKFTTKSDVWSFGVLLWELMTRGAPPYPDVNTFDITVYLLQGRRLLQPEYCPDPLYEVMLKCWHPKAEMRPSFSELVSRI
Protocol: Cell pellets were frozen at −80° C. until purification was performed.
The coated plates were washed and stored at 4° C. […] After incubation, the kinase reactions were quenched with EDTA and the plates were washed.

VEGF receptor KDR = target: T2, VEGF receptor KDR (Homo sapiens, UniProt P35968); assay: In vitro receptor tyrosine kinase assay (DELFIA), VEGF receptor KDR; assay type: biochemical; details: read-out: VEGFR IC50
T2 construct: made in house; host or cells: Sf9 cells (Spodoptera frugiperda), baculovirus
T2 sequence (P35968 806-1356): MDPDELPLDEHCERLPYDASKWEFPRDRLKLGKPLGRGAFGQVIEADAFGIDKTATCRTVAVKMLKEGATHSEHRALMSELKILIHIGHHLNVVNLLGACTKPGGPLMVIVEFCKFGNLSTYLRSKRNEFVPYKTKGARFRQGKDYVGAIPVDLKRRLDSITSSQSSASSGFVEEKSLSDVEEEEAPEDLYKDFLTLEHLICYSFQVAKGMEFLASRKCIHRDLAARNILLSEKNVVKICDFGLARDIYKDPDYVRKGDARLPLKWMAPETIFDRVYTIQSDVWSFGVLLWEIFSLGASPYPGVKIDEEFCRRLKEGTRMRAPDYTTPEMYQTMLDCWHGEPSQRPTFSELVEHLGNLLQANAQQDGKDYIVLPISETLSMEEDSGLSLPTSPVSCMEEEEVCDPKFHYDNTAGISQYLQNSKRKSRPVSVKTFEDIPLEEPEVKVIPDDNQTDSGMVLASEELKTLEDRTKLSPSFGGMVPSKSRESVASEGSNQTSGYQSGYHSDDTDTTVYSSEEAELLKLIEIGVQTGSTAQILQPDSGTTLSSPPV

A549 = A549 wound healing inhibition (HGF dependent migration); assay type: cell-based; details: Homo sapiens, A549 cells, read-out: A549 WOUND HEALING INHIB IC50
Excerpt: as §1

Structure (SMILES) | IC50 (DU145) [nM] | IC50 [1] [nM] | IC50 (VEGF receptor KDR) [nM] | IC50 (A549) [nM]
CCn1cnc(-c2cc3nccc(Oc4ccc(NC(=O)CC(=O)Nc5cccc(OC)c5)cc4F)c3s2)c1 | 1000 to 5000 | 50 to 250 | < 50 | 1000 to 5000
CN1CCN(C(=O)C2(C(=O)Nc3ccc(Oc4ccnc5cc(-c6cn(C)cn6)sc45)c(F)c3)CC2)c2ccccc21 | 1000 to 5000 | > 500 | < 50 | 1000 to 5000
O=C(O)Cn1cnc(-c2cc3nccc(Oc4ccc(NC(=O)CC(=O)Nc5ccccc5)cc4F)c3s2)c1 | > 10000 | < 50 | < 50 | > 10000
Cn1ccnc1-c1cc2nccc(Oc3ccc(NC(=O)CC(=O)Nc4cccnc4)cc3F)c2s1 [drawing 282] | 1000 to 5000 | 250 to 500 | < 50 | < 1000
CN(C(=O)CC(=O)Nc1ccc(Oc2ccnc3cc(-c4cn(C)cn4)sc23)c(F)c1)c1ccccc1F | 1000 to 5000 | 50 to 250 | < 50 | < 1000
COc1ccccc1CCNC(=O)C(=O)Nc1ccc(Oc2ccnc3cc(-c4ccc(OCCN5CCOCC5)c(OC)c4)sc23)c(F)c1 | > 10000 | 250 to 500 | > 500 | 1000 to 5000
Cn1cncc1-c1cc2nccc(Oc3ccc(NC(=O)CC(=O)Nc4cccnc4)cc3F)c2s1 [drawing 290] | 1000 to 5000 | 50 to 250 | < 50 | 1000 to 5000
Cn1cnc(-c2cc3nccc(Nc4ccc(NC(=O)C5CCN(c6ccccc6)C5=O)cc4F)c3s2)c1 (stereo not drawn) | 1000 to 5000 | 50 to 250 | 250 to 500 | < 1000
CCn1cnc(-c2cc3nccc(Oc4ccc(NC(=O)CC(=O)Nc5cccc(F)c5)cc4F)c3s2)c1 | 1000 to 5000 | 50 to 250 | < 50 | < 1000
CN(C)Cc1ccc(-c2cc3nccc(Oc4ccc(NC(=O)N5CCN(c6ccc(F)cc6)C5=O)cc4F)c3s2)nc1 | < 1000 | < 50 | < 50 | < 1000
CCn1cnc(-c2cc3nccc(Oc4ccc(NC(=O)C(=O)NCCc5ccccc5F)cc4F)c3s2)c1 | > 10000 | 50 to 250 | 50 to 250 | 1000 to 5000
Cn1cnc(-c2cc3nccc(Oc4ccc(NC(=O)C5CCN(c6ccc(F)cc6)C5=O)cc4F)c3s2)c1 (stereo not drawn) | < 1000 | < 50 | < 50 | < 1000
CN(C)NC(=O)c1cc2nccc(Oc3ccc(NC(=O)CC(=O)N(C)c4ccccc4)cc3F)c2s1 | > 10000 | 250 to 500 | > 500 | > 10000
Cn1ccnc1-c1cc2nccc(Oc3ccc(NC(=O)N4CCN(c5ccccc5)C4=O)cc3F)c2s1 | < 1000 | < 50 | < 50 | < 1000
CN(C)[C@H]1CCN(C(=O)c2cc3nccc(Oc4ccc(NC(=O)N5CCN(c6ccccc6)C5=O)cc4F)c3s2)C1 | < 1000 | < 50 | < 50 | < 1000
COCCn1cnc(-c2cc3nccc(Oc4ccc(NC(=O)CC(=O)Nc5ccccc5)cc4F)c3s2)c1 | < 1000 | < 50 | < 50 | < 1000
O=C1N(C(=S)Nc2ccc(Oc3ccnc4cc(-c5cn(CCN6CCCC6)cn5)sc34)c(F)c2)CCN1c1ccc(F)cc1 | < 1000 | < 50 | < 50 | < 1000
O=C(Nc1ccc(Oc2ccnc3cc(-c4cn(CCCN5CCCC5)cn4)sc23)c(F)c1)N1CCN(c2ccc(F)cc2)C1=O | < 1000 | < 50 | < 50 | < 1000

Results, then the compound that gave them:

IC50 (DU145) [nM] | IC50 [1] [nM] | IC50 (VEGF receptor KDR) [nM] | IC50 (A549) [nM] | Structure (SMILES)
< 1000 | < 50 | 50 to 250 | < 1000 | Cn1ccnc1-c1cc2nccc(Sc3ccc(NC(=O)N4CCN(c5ccccc5)C4=O)cc3)c2s1
< 1000 | < 50 | < 50 | 1000 to 5000 | CN(C(=O)CC(=O)Nc1ccc(Oc2ccnc3cc(-c4cn(CCCN5CCCC5)cn4)sc23)c(F)c1)c1ccccc1
< 1000 | < 50 | < 50 | < 1000 | COCCNCc1ccc(-c2cc3nccc(Oc4ccc(NC(=O)N5CCN(c6ccccc6)C5=O)cc4F)c3s2)cc1
< 1000 | < 50 | < 50 | 1000 to 5000 | CCn1cnc(-c2cc3nccc(Oc4ccc(NC(=O)CC(=O)Nc5ccccc5OC)cc4F)c3s2)c1 [drawing 292]
< 1000 | < 50 | < 50 | < 1000 | Cn1cnc(-c2cc3nccc(Oc4ccc(NC(=O)N5CCN(c6ccc(F)cc6)C5=O)cc4F)c3s2)c1
< 1000 | 50 to 250 | 50 to 250 | < 1000 | COc1ccccc1NC(=O)CC(=O)Nc1ccc(Oc2ccnc3cc(N4CCCC4=O)sc23)c(F)c1
< 1000 | < 50 | < 50 | < 1000 | Cn1cnc(-c2cc3nccc(Oc4ccc(NC(=O)CC(=O)Nc5ccccc5F)cc4F)c3s2)c1
< 1000 | 50 to 250 | < 50 | 1000 to 5000 | CCn1cnc(-c2cc3nccc(Oc4ccc(NC(=O)CC(=O)Nc5ccccc5C(F)(F)F)cc4F)c3s2)c1
< 1000 | < 50 | < 50 | < 1000 | CCn1ccnc1-c1cc2nccc(Oc3ccc(NC(=O)N4CCN(c5ccccc5)C4=O)cc3F)c2s1
< 1000 | < 50 | < 50 | 1000 to 5000 | CN1CCN(CCN(C)Cc2ccc(-c3cc4nccc(Oc5ccc(NC(=O)CC(=O)N(C)c6ccccc6)cc5F)c4s3)cc2)CC1
< 1000 | 50 to 250 | < 50 | 1000 to 5000 | O=C(Nc1ccc(Oc2ccnc3cc(-c4cn(CCN5CCCC5)cn4)sc23)c(F)c1)C1CCN(c2ccccc2)C1=O (stereo not drawn)
< 1000 | < 50 | < 50 | < 1000 | CN1CCN(CCN(C)Cc2ccc(-c3cc4nccc(Oc5ccc(NC(=O)CC(=O)Nc6ccccc6)cc5F)c4s3)cc2)CC1 [drawing 351]
< 1000 | < 50 | < 50 | < 1000 | CCn1cnc(-c2cc3nccc(Oc4ccc(NC(=O)CC(=O)Nc5ccccc5F)cc4F)c3s2)c1 [drawing 293]
< 1000 | < 50 | < 50 | < 1000 | Cn1cnc(-c2cc3nccc(Oc4ccc(NC(=O)C5(C(=O)Nc6ccc(F)cc6)CC5)cc4F)c3s2)c1
< 1000 | < 50 | < 50 | 1000 to 5000 | CN1CC=C(c2cc3nccc(Oc4ccc(NC(=O)C5(C(=O)Nc6ccccc6)CC5)cc4F)c3s2)CC1
< 1000 | < 50 | < 50 | 1000 to 5000 | CN1CCN(CCN(C)Cc2ccc(-c3cc4nccc(Oc5ccc(NC(=O)C6CCN(c7ccccc7)C6=O)cc5F)c4s3)cc2)CC1 (stereo not drawn)
< 1000 | < 50 | < 50 | < 1000 | Cn1ccnc1-c1cc2nccc(Oc3ccc(NC(=O)CC(=O)Nc4ccccc4F)cc3F)c2s1 [drawing 285]
< 1000 | 50 to 250 | < 50 | 1000 to 5000 | CN(C)[C@H]1CCN(Cc2ccc(-c3cc4nccc(Oc5ccc(NC(=O)CC(=O)Nc6ccccc6)cc5F)c4s3)cc2)C1
